Data published in PubChem BioAssay (NCI).
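Five concentrations, 48 hours, 96-well plates. Definition used: TGI = concentration required for complete inhibition of growth.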

Columns and labels:
Assay in all cases: NCI-60 cell line screen, 48 h
[1] = tested on: XF 498 CNS
[2] = tested on: SN12C renal
[3] = tested on: A549 NSCLC
[4] = tested on: TK-10 renal
[5] = tested on: LXFL 529 NSCLC
[6] = tested on: SK-OV-3 ovarian
[7] = tested on: U251 CNS
[8] = tested on: HOP-18 NSCLC
[9] = tested on: DMS 273 small cell lung
[10] = tested on: CAKI-1 renal
[11] = tested on: IGROV1 ovarian
[12] = tested on: MCF7 breast

Structure (SMILES) | TGI [1] [µM] | TGI [2] [µM] | TGI [3] [µM] | TGI [4] [µM] | TGI [5] [µM] | TGI [6] [µM] | TGI [7] [µM] | TGI [8] [µM] | TGI [9] [µM] | TGI [10] [µM] | TGI [11] [µM] | TGI [12] [µM]
O=[N+]([O-])c1ccc(-c2csc(=[N+]3CCCCC3)s2)cc1 | 48.1 | > 100 | > 100 | > 100 | > 100 | > 100 | > 20.8 | > 100 | > 100 | > 100 | > 100 | 
CC[C@]12C=CCN3CCC4(c5cc([C@@]6(C(=O)OC)CC7CN(CCc8c6[nH]c6ccccc86)CC6CCCCC67)c(OC)cc5N(C)C4[C@](O)(C(=O)OC)C1OC(C)=O)[C@@H]32 (stereo partly drawn) | 9.12 | 17.5 | 12.6 | 18.7 | 12.7 |  | < 0.01 |  |  | 12 | 0.651 | 
C[As+](C)(c1ccc(Br)c([N+](=O)[O-])c1)c1ccc(Br)c([N+](=O)[O-])c1.O=[N+]([O-])O |  | > 100 | > 100 | > 100 |  | > 100 | > 100 |  |  | > 100 | > 100 | > 100
Cc1cc(-c2cc(C(C)(C)C)c(O)c(C(C)(C)C)c2)c(C)cc1-c1cc(C(C)(C)C)c(O)c(C(C)(C)C)c1 |  | > 100 | > 100 | > 100 |  | > 100 | > 100 |  |  | > 100 | > 100 | > 100
CC/C=N\N1C(N)=C(C#N)C(C#N)(C#N)C1CC (stereo not drawn) |  | > 100 | > 100 | > 100 |  | > 100 | > 100 |  |  | > 100 | > 100 | > 100
COc1ccc([C@]23CCC4(OCC(C)(C)CO4)[C@H]4CON(O[C@H](O[C@@H]5CCCCC5C(C)(C)c5ccccc5)C2)[C@@H]43)cc1OC (stereo partly drawn) |  | > 100 | > 100 | > 100 |  | > 100 | > 100 |  |  | 39 | > 100 | > 100
Cc1ccc(C)c(COCCOCn2cc(N3CCOCC3)c(=O)[nH]c2=O)c1 |  | > 100 | > 100 | > 100 |  | > 100 | > 100 |  |  | > 100 | > 100 | > 100
CC1=C(C(=O)OCCO[N+](=O)[O-])C(c2ccccc2[N+](=O)[O-])C(C(=O)OC(C)C)=C(C)N1 (stereo not drawn) |  | 34.9 | 41.9 | 58.4 |  | 39.8 | 30 |  |  | 59.7 | 34.9 | 44.9
CCOC(=O)[C@@H](Cc1ccc(CCl)cc1)NC(C)=O |  | 49.6 | > 100 | 23.4 |  | > 100 | 40.5 |  |  | 68.6 | 51.2 | 83.5
CC(C)(C)c1ccnc(N=C2N=C(Nc3cc(C(C)(C)C)ccn3)c3ccccc32)c1 | 38.6 | > 100 | 62.3 | 46.1 | > 100 | 49 | 51 | 59.6 |  | 53.1 | 72.1 | 
CC1(C)OCC(C2OC(C)(C)OC2[C@H]2O[C@@]3(O)[C@H]4[C@H](C=CC[C@@H]42)[C@@H](OCc2ccccc2)[C@H](OCc2ccccc2)[C@H]3OCc2ccccc2)O1 (stereo partly drawn) |  | > 100 | > 100 | > 100 |  | > 100 | > 100 |  |  | > 100 | > 100 | > 100
CC1=NN2C(=N)/C(=C/c3ccc(F)cc3)C(=O)N=C2S1 |  | > 100 | > 100 | > 100 |  | > 100 | > 100 |  |  | > 100 | > 100 | > 100
O=C1C=CC(=O)c2c(O)c(N3CCC[C@@H]3CO)c(Cl)c(O)c21 |  | 3.25 | 4.19 | 3.3 |  | 7.78 | 3.46 |  |  | 2.94 | 3.27 | 2.7
CC(C)(C)N=NC(C)(C)N=C=O | > 100 | > 100 | > 100 | > 100 | > 100 | > 100 | > 100 | > 100 | > 100 | > 100 | > 100 | 
CCC1([N+](=O)[O-])CN(N=O)C1 |  | > 100 | > 100 | > 100 |  | > 100 | > 100 |  |  | > 100 | > 100 | > 100
CSc1ccc(/C=C2\N=C(c3ccccc3)N(c3nc4cc(Cl)c(F)cc4s3)C2=O)cc1 |  | > 100 | > 100 | > 100 |  | > 100 | 41.7 |  |  | > 100 | > 100 | > 100

Structure (SMILES) | TGI [1] [µM] | TGI [2] [µM] | TGI [3] [µM] | TGI [4] [µM] | TGI [5] [µM] | TGI [6] [µM] | TGI [7] [µM] | TGI [8] [µM] | TGI [9] [µM] | TGI [10] [µM] | TGI [11] [µM] | TGI [12] [µM]
Clc1ccc(/C(=C/c2ccccc2)Cn2ccnc2)cc1 |  | > 100 | > 100 | > 100 |  | > 100 | > 100 |  |  | > 100 | > 100 | > 100
CCC1(CC)C(=O)N(C(=O)c2cc(OC)c(OC)c(OC)c2)N(C(=O)c2cc(OC)c(OC)c(OC)c2)C1=O |  | > 50 | > 50 | > 50 |  | > 50 | > 50 |  |  | > 50 | > 50 | > 50
Cc1cccc2c1CC(Cc1ccccc1C(=O)O)C2=O (stereo not drawn) |  | > 100 | > 100 | > 100 |  | > 100 | > 100 |  |  | > 100 | > 100 | > 100
COc1cc(/C=N/N=C(\N)NO)c([N+](=O)[O-])cc1OC |  | > 100 | > 100 | > 100 | > 100 | > 100 | > 100 | > 100 | > 100 | 76.2 | > 100 | 
NC(=O)NN=C1Cc2ccccc2C1 |  | > 100 | > 100 | > 100 |  | > 100 | > 100 |  |  | > 100 | > 100 | > 100
CC(=N/NC(=S)N(C)C)/C(=N\NC(=S)N(C)C)c1ccccc1 |  | 3.24 | 8.56 | 3 |  | 3.53 | 7.96 |  |  | 6.96 | 3.36 | > 25.6
CC1(C)N=C(N)N=C(N)N1c1cccc(Cl)c1 |  | > 100 | > 100 | > 100 |  | > 100 | > 100 |  |  | > 100 | > 100 | > 100
O=C1Nc2cc(F)ccc2C1=O | > 100 | > 100 | > 100 | > 100 | > 100 | > 100 | > 100 | > 100 | > 100 | > 100 | > 100 | 
CCCCN(CCCC)CC(C(C)=O)C(c1ccccc1)c1c(O)c2ccccc2oc1=O (stereo not drawn) | > 100 | > 100 | > 100 | > 100 | > 100 | > 100 | > 100 | > 100 | > 100 | > 100 | > 100 | 
CS(=O)(=O)Nc1ccc2ccccc2c1 |  | > 100 | > 100 | > 100 |  | > 100 | > 100 |  |  | > 100 | > 100 | > 100
COc1cc2c(cc1OCc1ccccc1)NC(=O)[C@@H]1CCCN1C2=O |  | > 100 | > 100 | > 100 |  | > 100 | > 100 |  |  | > 100 | > 100 | > 100
CC(C)=CCC[C@@H](C)C1=C(Nc2ccccc2F)C(O)=C(C)C(=O)C1=O |  | > 100 | > 44.9 | > 100 |  | 73.3 | > 31.6 |  |  | 34.2 | > 39.1 | 81.6
O=C(NC(C(F)(F)F)(C(F)(F)F)P(=O)(Cc1ccccc1)Cc1ccccc1)C(C(F)(F)F)C(F)(F)F |  | 38.4 | 68.3 | 39.1 |  | > 100 | 41.5 |  |  | 97.1 | 36.1 | 31.8
CNC(=O)CN(CC(=O)O)C(=O)NC | > 100 |  | > 100 | > 100 | > 100 | > 100 | > 100 |  | > 100 | > 100 | > 100 | 
Cn1c(=O)cc(NNc2ccc(Cl)c(Cl)c2)[nH]c1=O |  | 21.2 | 36 | 30.6 |  | > 100 | 24.8 |  |  | 27.3 | 23.5 | 21.4
CSc1ncc2c(n1)-c1ccccc1OC2NC1CC1 (stereo not drawn) |  | > 100 | > 100 | > 100 |  | > 100 | > 100 |  |  | 86.3 | > 100 | > 100
